According to article PMC6978363, “Chaperone mediated detection of small molecule target binding in cells” (Nature Communications, 2020):

Columns and labels:
Assay in all cases: biochemical
Details in all cases: read-out: % Inhibition (at 10mM)
p38_beta = target: T1, p38_beta (Homo sapiens, UniProt Q15759)
T1 construct: gene MAPK11

ITK = ITK (Homo sapiens, UniProt Q08881)
TBK1 = TBK1 (Homo sapiens, UniProt Q9UHD2)
CDKL5 = CDKL5 (Homo sapiens, UniProt O76039)
p38_gamma = target: T2, p38_gamma (Homo sapiens, UniProt P53778)
T2 construct: gene MAPK12

NEK6 = NEK6 (Homo sapiens, UniProt Q9HC98)
CDK5/p25 = target: T3, CDK5/p25 (Homo sapiens, UniProt Q00535)
T3 construct: p25

PDGFR_alpha = target: T4, PDGFR_alpha (Homo sapiens, UniProt P16234)
T4 construct: gene PDGFRA

Aurora_B = target: T5, Aurora_B (Homo sapiens, UniProt Q96GD4)
T5 construct: gene AURKB

SGK2 = SGK2 (Homo sapiens, UniProt Q9HBY8)
PCTK3 = target: T6, PCTK3 (Homo sapiens, UniProt Q07002)
T6 construct: gene CDK18

KHS1 = target: T7, KHS1 (Homo sapiens, UniProt Q9Y4K4)
T7 construct: gene MAP4K5

MST1 = target: T8, MST1 (Homo sapiens, UniProt Q13043)
T8 construct: gene STK4

CK1_gamma3 = target: T9, CK1_gamma3 (Homo sapiens, UniProt Q9Y6M4)
T9 construct: gene CSNK1G3

PAK4 = PAK4 (Homo sapiens, UniProt O96013)
EphA2 = EphA2 (Homo sapiens, UniProt P29317)
EphB2 = EphB2 (Homo sapiens, UniProt P29323)
Flt3 = Flt3 (Homo sapiens, UniProt P36888)
AKT1 = AKT1 (Homo sapiens, UniProt P31749)
CLK1 = CLK1 (Homo sapiens, UniProt P49759)
PKC_zeta = target: T10, PKC_zeta (Homo sapiens, UniProt Q05513)
T10 construct: gene PRKCZ

ACVR1B = ACVR1B (Homo sapiens, UniProt P36896)
Src_N1 = target: T11, Src_N1 (Homo sapiens, UniProt P12931)
T11 construct: gene SRC; isoform N1

CamK1_gamma = target: T12, CamK1_gamma (Homo sapiens, UniProt Q96NX5)
T12 construct: gene CAMK1G

Rse = target: T13, Rse (Homo sapiens, UniProt Q06418)
T13 construct: gene TYRO3

DCAMKL2 = target: T14, DCAMKL2 (Homo sapiens, UniProt Q8N568)
T14 construct: gene DCLK2

PRKAA1_B2_G3 = target: T15, PRKAA1_B2_G3 (Homo sapiens, UniProt Q13131)
T15 construct: gene PRKAA1

SRPK2 = SRPK2 (Homo sapiens, UniProt P78362)
PEAK1 = PEAK1 (Homo sapiens, UniProt Q9H792)
MLK1 = target: T16, MLK1 (Homo sapiens, UniProt P80192)
T16 construct: gene MAP3K9

CDK2/cyclinA = CDK2/cyclinA (Homo sapiens, UniProt P24941)
CK2_alpha2 = target: T17, CK2_alpha2 (Homo sapiens, UniProt P19784)
T17 construct: gene CSNK2A2

CaMKI_delta = target: T18, CaMKI_delta (Homo sapiens, UniProt Q8IU85)
T18 construct: gene CAMK1D

PAK3 = PAK3 (Homo sapiens, UniProt O75914)
Lyn = Lyn (Homo sapiens, UniProt P07948)
ERK1 = target: T19, ERK1 (Homo sapiens, UniProt P27361)
T19 construct: gene MAPK3

PIM1 = PIM1 (Homo sapiens, UniProt P11309)

T6 sequence (Q07002 whole entry): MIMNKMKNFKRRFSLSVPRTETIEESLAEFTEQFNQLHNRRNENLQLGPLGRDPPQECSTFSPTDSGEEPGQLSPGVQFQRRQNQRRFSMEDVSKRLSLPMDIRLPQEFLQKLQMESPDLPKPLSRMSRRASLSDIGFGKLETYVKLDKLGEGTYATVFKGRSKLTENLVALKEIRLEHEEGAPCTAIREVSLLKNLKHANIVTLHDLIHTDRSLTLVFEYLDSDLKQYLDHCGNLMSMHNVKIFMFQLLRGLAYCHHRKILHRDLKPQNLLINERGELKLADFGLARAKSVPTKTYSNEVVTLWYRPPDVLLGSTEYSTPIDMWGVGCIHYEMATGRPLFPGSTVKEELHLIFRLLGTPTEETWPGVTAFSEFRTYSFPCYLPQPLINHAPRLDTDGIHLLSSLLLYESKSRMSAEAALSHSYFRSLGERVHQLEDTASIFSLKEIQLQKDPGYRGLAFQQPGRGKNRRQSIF
T16 sequence (P80192 whole entry): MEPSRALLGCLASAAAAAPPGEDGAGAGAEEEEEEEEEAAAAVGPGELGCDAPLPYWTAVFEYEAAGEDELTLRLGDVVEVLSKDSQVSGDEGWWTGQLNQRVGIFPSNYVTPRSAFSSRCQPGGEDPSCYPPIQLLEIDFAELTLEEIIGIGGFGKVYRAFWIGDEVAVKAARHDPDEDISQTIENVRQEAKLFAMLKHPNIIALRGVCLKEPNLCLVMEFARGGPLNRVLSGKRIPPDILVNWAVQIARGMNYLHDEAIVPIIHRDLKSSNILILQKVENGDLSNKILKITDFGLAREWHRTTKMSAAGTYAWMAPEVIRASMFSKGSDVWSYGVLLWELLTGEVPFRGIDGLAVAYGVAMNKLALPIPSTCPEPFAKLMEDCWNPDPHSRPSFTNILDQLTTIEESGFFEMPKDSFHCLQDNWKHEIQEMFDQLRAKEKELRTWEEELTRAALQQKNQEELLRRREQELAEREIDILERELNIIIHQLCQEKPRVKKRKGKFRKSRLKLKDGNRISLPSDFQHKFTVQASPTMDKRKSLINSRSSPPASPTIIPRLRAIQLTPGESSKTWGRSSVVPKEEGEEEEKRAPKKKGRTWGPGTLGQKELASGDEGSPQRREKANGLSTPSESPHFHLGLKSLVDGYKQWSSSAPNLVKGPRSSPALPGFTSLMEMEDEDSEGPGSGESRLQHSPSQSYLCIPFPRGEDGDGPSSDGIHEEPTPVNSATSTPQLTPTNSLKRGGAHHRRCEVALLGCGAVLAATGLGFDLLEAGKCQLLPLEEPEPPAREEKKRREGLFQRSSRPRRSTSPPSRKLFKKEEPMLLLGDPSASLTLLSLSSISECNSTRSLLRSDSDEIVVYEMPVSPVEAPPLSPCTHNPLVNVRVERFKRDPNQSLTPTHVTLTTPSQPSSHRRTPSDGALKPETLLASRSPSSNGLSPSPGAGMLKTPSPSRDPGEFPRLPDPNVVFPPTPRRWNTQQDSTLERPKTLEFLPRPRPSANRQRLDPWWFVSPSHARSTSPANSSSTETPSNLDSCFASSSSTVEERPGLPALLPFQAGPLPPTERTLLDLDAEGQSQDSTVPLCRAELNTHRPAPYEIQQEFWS
Chain of SRPK2 (P78362 whole entry): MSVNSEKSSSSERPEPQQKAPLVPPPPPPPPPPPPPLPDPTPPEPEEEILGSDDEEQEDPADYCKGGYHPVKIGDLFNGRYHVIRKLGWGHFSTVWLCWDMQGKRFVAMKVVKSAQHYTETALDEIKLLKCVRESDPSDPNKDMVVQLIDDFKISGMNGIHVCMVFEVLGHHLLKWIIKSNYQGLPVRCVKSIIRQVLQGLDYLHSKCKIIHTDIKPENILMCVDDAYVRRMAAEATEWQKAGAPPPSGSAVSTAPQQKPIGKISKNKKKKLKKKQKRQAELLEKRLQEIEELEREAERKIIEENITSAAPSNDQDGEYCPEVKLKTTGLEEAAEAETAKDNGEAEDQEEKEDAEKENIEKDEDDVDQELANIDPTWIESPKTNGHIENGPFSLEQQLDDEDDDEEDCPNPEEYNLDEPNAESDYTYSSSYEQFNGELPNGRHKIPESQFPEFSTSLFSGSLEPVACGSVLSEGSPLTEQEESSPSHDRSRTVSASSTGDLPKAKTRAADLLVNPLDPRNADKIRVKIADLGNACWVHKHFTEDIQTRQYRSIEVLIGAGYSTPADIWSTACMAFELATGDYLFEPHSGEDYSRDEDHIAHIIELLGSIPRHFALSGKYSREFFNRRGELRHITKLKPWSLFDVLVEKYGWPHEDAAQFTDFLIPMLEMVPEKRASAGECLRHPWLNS
Chain of CDKL5 (O76039 whole entry): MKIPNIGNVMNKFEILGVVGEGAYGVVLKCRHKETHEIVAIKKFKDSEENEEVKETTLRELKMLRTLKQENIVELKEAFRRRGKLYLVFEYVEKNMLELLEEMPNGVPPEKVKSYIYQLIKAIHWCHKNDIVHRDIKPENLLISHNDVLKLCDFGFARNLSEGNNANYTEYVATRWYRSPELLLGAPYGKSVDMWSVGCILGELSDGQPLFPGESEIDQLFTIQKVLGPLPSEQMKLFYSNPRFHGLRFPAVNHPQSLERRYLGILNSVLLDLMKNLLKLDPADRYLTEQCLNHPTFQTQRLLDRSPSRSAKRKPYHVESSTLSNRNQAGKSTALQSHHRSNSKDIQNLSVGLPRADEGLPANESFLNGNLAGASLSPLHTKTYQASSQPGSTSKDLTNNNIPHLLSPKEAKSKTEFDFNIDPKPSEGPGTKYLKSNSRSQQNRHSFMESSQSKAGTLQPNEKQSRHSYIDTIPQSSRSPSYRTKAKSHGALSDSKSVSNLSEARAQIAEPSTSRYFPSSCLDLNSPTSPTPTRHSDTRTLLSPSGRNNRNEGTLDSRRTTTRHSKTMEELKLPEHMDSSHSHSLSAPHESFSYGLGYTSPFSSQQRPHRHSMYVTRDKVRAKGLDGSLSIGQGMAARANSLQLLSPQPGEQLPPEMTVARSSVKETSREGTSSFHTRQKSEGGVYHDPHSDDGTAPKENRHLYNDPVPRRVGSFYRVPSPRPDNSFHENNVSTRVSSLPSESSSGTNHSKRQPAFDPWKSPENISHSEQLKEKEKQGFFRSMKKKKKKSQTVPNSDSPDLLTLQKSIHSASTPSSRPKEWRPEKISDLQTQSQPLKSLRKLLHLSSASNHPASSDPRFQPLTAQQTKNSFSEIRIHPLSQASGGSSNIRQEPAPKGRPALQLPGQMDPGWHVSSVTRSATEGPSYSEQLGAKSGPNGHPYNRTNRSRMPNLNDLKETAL
Chain of PEAK1 (Q9H792 whole entry): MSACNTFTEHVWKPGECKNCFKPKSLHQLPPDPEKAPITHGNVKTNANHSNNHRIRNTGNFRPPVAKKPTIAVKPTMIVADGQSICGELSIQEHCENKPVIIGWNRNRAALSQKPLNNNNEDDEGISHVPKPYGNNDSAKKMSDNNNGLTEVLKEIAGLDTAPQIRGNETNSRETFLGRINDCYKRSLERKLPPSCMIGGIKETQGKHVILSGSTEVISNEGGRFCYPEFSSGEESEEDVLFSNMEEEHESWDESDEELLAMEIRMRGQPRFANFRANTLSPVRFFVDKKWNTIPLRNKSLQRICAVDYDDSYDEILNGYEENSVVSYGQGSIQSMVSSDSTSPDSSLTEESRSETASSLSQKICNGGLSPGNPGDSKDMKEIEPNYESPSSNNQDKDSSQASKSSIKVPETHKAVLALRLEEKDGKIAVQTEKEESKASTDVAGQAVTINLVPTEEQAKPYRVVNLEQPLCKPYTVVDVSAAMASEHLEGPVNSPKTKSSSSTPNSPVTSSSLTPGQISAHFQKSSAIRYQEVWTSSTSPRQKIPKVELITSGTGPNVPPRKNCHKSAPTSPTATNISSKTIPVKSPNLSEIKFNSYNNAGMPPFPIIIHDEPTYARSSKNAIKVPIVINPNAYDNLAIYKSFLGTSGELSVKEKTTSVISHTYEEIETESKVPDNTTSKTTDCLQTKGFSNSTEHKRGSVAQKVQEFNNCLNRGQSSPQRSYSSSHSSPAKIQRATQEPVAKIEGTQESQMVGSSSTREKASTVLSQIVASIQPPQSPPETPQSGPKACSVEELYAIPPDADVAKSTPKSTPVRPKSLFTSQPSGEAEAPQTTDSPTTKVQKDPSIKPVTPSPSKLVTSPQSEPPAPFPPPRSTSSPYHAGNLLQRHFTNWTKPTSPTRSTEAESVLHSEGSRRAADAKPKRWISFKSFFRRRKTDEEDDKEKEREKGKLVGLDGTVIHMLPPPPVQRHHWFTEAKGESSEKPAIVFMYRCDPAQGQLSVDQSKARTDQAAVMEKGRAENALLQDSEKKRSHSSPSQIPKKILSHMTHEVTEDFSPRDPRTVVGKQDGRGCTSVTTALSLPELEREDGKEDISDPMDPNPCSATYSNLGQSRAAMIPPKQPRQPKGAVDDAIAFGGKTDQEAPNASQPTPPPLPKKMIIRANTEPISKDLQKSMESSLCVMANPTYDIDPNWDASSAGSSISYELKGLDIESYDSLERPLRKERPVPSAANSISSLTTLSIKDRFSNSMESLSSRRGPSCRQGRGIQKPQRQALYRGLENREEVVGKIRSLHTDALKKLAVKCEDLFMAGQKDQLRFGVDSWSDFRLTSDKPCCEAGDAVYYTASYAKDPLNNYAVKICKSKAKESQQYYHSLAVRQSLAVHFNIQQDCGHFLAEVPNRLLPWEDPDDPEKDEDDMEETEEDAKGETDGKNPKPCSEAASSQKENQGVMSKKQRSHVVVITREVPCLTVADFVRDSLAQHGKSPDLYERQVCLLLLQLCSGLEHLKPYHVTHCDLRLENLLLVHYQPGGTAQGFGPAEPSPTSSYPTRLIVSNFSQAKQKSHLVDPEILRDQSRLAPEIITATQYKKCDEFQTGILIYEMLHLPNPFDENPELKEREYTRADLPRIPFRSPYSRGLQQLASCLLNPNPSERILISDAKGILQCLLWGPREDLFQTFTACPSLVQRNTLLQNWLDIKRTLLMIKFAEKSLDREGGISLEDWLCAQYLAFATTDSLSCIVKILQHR

- inhibition (p38_beta): 1%
- inhibition (ITK): 1%
- inhibition (TBK1): 8%
- inhibition (CDKL5): 8.5%
- inhibition (p38_gamma): 12.5%
- inhibition (NEK6): 6%
- inhibition (CDK5/p25): 8%
- inhibition (PDGFR_alpha): 1.5%
- inhibition (Aurora_B): 68%
- inhibition (SGK2): 3.5%
- inhibition (PCTK3): 6%
- inhibition (KHS1): 40.5%
- inhibition (MST1): 2%
- inhibition (CK1_gamma3): 2.5%
- inhibition (PAK4): 5.5%
- inhibition (EphA2): 7.5%
- inhibition (EphB2): 12%
- inhibition (Flt3): 27%
- inhibition (AKT1): 1.5%
- inhibition (CLK1): 10.5%
- inhibition (PKC_zeta): 8.5%
- inhibition (ACVR1B): -5%
- inhibition (Src_N1): 23%
- inhibition (CamK1_gamma): 10%
- inhibition (Rse): 10.5%
- inhibition (DCAMKL2): -9.5%
- inhibition (PRKAA1_B2_G3): 0.5%
- inhibition (SRPK2): 2.5%
- inhibition (PEAK1): 11%
- inhibition (MLK1): 6.5%
- inhibition (CDK2/cyclinA): 4.5%
- inhibition (CK2_alpha2): 6.5%
- inhibition (CaMKI_delta): 0%
- inhibition (PAK3): 12%
- inhibition (Lyn): 39.5%
- inhibition (ERK1): 3%
- inhibition (PIM1): 5.5%
SMILES: CC(C)(O)CC(=O)NCCn1ccc2ncnc(Nc3ccc(Oc4cccc(C(F)(F)F)c4)c(Cl)c3)c21 [TAK-285]
